# Laboratory results published in patent US5338845A, “Aspergillus species, cyclic dimeric dipeptide derivative substance P antagonist biosynthetic products thereof, and process for preparation thereof” (Sterling Winthrop Inc., priority 1992, dated 1994).
# How the values were obtained:
# NK1 [1] = target: T1, NK1 (Homo sapiens, UniProt P25103); test: NK1 functional assay: Substance P-induced 45Ca2+ efflux from human astrocytoma U373MG cells; assay type: cell-based; set-up: Human astrocytoma cells (U--373 MG, ATCC No. HTB 17) were cultured in 75-mL flasks; host or cells: U-373 MG human astrocytoma cells (intact monolayer); conditions: read-out: IC50, inhibition of Substance P-induced 45Ca2+ efflux
# NK2 receptor [2] = target: T2, NK2 receptor (Rattus norvegicus, UniProt P16610); test: Eledoisin-induced contractility in rat vas deferens model; assay type: cell-based; set-up: from tissue; host or cells: rat vas deferens (organ preparation); conditions: functional antagonism at the NK2 receptor, read-out: IC50, inhibition of eledoisin-induced contractility
# T2 sequence (P16610 1-390): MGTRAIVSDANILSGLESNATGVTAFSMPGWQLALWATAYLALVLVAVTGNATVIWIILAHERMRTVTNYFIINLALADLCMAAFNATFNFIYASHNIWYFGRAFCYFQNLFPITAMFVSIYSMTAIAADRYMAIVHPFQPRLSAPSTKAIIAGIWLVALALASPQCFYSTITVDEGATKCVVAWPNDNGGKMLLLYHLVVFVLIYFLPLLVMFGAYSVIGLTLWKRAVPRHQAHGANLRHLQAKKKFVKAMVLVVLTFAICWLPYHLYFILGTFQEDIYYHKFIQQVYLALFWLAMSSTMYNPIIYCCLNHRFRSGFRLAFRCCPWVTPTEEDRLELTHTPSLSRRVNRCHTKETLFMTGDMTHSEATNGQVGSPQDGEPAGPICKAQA
# NK2 receptor [3] = target: T3, NK2 receptor (Homo sapiens, UniProt P21452); test: 125I-neurokinin A binding to the NK2 receptor in human urinary bladder membranes; conditions: read-out: Ki, inhibition of 125I-neurokinin A binding to the NK2 receptor
# T3 construct: NK2 receptor in both rat duodenum and human urinary bladder membranes; from tissue; host or cells: human urinary bladder membranes
# T3 sequence (P21452 1-398): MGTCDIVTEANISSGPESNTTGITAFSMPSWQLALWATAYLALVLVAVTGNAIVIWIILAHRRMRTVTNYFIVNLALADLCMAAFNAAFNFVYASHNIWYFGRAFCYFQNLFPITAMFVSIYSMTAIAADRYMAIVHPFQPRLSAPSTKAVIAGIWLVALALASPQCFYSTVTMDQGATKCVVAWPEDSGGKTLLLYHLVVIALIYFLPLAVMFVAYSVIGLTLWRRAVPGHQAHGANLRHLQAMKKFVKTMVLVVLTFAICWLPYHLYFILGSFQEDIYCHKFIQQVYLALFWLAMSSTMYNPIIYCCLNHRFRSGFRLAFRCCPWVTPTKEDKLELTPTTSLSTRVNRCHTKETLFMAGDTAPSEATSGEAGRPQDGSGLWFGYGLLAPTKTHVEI
# NK1 [4] = target: T4, NK1 (Cavia porcellus, UniProt P30547); test: NK1 functional assay: Substance P-induced contractility in the guinea pig ileum; assay type: cell-based; set-up: Substance P-induced contractility in the guinea pig ileum; from tissue; host or cells: guinea pig ileum (organ preparation)
# NK1 [5] = target: T4, NK1; test: Substance P NK1 receptor binding, tritiated Substance P, guinea pig submaxillary gland tissue; set-up: the resulting submaxillary gland tissue preparation (1.0 to 1.5 mL) was stored at -70° C; tissue Pel Freeze Biologicals; host or cells: guinea pig submaxillary gland homogenate; conditions: tritiated Substance P 0.75 nM; Ki calculated from IC50 by Cheng-Prusoff; read-out: Ki Guinea Pig Submaxillary Gland Tissue (Substance P antagonist potency)
# Description: (§1) As stated above the compounds of Formula I are useful as Substance P antagonists and therefore as analgesic and/or antiinflammatory agents. Substance P antagonist NK1 receptor binding activity was determined using guinea pig submaxillary gland tissue and human astrocytoma cells.
# Submaxillary glands from both sexes of Hartley guinea pigs were obtained from Pel Freeze Biologicals, Rogers, Arkansas by overnight express in a plastic bag kept cold in wet ice. […] Using serum bovine albumin as the standard the protein yield was determined by the Bradford method (Bio-Rad, Richmond, Calif.) to be 7-8 mg/mL or about 250 mg from 50 submaxillary glands.
# To test for receptor binding a sample of the submaxillary gland tissue preparation was thawed on ice and rehomogenized with a glass homogenizer (Dounce). […] The residue on the filter was washed three times with tromethamine buffer (3 mL each time) and its radioactivity was measured in a liquid scintillation counter (Beckman LS5000) (x=number of counts per minute with test compound, y=number of counts per minute without test compound). […] The dissociation constant (Kd) for receptor binding was determined by varying the concentration of tritiated Substance P. The following calculations were made: […]
# NK1 [6] = target: T1, NK1; test: Substance P NK1 receptor binding, 125I-Bolton Hunter Substance P, human astrocytoma cells (U-373 MG); set-up: host or cells: U-373 MG human astrocytoma cells (intact monolayer); conditions: for IC50: comparative test with ditryptophenaline, read-out: IC50, Substance P antagonist activity in human astrocytoma cells
# Description: as §1
# Human astrocytoma cells (U--373 MG, ATCC No. HTB 17) were cultured in 75-mL flasks in an aqueous medium containing horse serum (heat inactivated, 10%), minimum essential amino acids (2%), minimum essential vitamin solution (2%), and an aqueous solution of penicillin (10,000 units/mL) and streptomycin (10,000 μg/mL) (Penn-Strep, 2%), which was sterilized by filtration through a disposable filter (Nalgene, VWR Cat. No. 28199-585). The medium was replaced twice weekly. Cells were passaged (1:4 split) by removing the medium and adding aqueous trypsin (0.25%, 8 mL/flask). The flasks were swirled for 30 seconds, the aqueous trypsin was removed, and the cells were incubated for 5 minutes at room temperature, then washed twice with fresh medium (7 mL each time). Poly-D-lysine solution (50 μg/mL in aqueous phosphate saline buffer, 0.25 mL) was added to each well of a sterile 96-well […] plate (Corning), which was then incubated at room temperature for 40 minutes. The poly-D-lysine solution was removed, each well was washed twice with aqueous phosphate saline buffer (0.25 mL), cells were added (0.2 mL/well), and the plate was incubated at 37° C. for two days in an oxygen-carbon dioxide (95:5) atmosphere to provide a monolayer of 1.4-1.9×10^4 cells per well.
# To test for receptor binding the aqueous phosphate saline buffer was removed from each well, the cell monolayer was washed three times with assay buffer (aqueous 2-[4-(2-hydroxyethyl)-1-piperazinyl]ethanesulfonic acid [HEPES], 25 mM; potassium chloride, 5.8 mM; monopotassium phosphate, 2.2 mM; sodium chloride, 115 mM; magnesium sulfate, 0.6 mM; calcium chloride, 1.8 mM; bovine serum albumin, 1%; glucose, 5 mM; thiorphan, 1 μM; and bacitracin, 40 μg/mL; pH adjusted to 7.40 with dilute hydrochloric acid; 0.25 mL each time). To each well was then added assay buffer alone (0.1 mL) or a mixture (0.1 mL) with assay buffer as diluent containing ^125 I-Bolton Hunter Substance P (Amersham, Inc., Arlington Heights, Ill.; 0.1 nanomole) and test compound in amount to give the desired concentration thereof or, to determine nonspecific binding, unlabelled Substance P (0.1 micromole) and the plate was incubated at 25° C. for 90 minutes. […] The radioactivity of part (100 μL) of the detachment mixture was measured in a gamma ray counter (Packard Cobra). Kd and IC50 values were determined and a Ki value was calculated for each test compound as described above.
# NK2 receptor [7] = target: T2, NK2 receptor; test: 125I-neurokinin A binding to the NK2 receptor in rat duodenum membranes; set-up: from tissue; conditions: read-out: Ki, inhibition of 125I-neurokinin A binding to the NK2 receptor
# NK3 = target: T5, NK3 (Cavia porcellus, UniProt P30098); test: NK3 selective ligand 3H-senktide binding, guinea pig forebrain membrane preparation; conditions: read-out: IC50 against NK3 selective ligand 3H-senktide
# T5 construct: tested in a guinea pig forebrain membrane preparation; from tissue; host or cells: guinea pig forebrain membrane preparation
# T5 sequence (P30098 1-440): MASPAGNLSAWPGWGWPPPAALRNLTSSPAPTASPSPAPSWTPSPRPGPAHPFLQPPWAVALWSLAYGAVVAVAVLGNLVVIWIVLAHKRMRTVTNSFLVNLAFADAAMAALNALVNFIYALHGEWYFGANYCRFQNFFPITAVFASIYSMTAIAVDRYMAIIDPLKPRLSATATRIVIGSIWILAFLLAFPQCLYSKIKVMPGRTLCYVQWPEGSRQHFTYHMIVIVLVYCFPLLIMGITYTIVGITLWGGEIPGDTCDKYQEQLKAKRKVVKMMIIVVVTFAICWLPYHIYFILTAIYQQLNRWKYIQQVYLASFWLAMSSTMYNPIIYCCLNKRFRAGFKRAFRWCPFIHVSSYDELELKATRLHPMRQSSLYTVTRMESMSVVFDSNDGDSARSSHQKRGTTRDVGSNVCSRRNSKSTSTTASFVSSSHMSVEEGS
# [8] = quoted from Springer et al., Tetrahedron Letters 1977; cited from earlier work
# T1 sequence (P25103 whole entry): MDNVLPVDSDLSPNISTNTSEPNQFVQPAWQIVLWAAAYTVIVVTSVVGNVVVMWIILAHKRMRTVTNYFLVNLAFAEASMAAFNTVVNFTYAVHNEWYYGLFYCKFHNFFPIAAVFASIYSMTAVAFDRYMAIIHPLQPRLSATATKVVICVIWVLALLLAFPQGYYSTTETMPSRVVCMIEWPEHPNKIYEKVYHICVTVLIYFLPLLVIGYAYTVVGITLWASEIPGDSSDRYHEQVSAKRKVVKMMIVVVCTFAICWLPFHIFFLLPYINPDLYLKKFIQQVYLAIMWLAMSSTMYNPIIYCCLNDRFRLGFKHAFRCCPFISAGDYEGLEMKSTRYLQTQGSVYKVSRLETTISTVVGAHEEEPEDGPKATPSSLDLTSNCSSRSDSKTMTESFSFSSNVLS
# T4 sequence (P30547 whole entry): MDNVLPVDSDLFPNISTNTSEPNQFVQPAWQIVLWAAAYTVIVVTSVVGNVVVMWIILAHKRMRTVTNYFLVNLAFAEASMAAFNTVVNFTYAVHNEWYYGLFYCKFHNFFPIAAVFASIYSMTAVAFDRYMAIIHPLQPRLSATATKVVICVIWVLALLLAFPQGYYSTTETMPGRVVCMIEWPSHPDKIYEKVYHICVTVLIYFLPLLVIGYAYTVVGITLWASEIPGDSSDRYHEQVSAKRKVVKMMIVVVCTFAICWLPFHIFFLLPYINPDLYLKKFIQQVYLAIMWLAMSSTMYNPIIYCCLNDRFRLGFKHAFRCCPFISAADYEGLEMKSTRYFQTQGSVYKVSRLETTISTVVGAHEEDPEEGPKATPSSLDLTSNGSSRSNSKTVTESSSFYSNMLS
smiles,measurement,setting,value
O=C1N[C@@H](Cc2ccccc2)C(=O)N2[C@H]3Nc4ccccc4C3([C@]34C[C@H]5C(=O)N[C@@H](Cc6ccccc6)C(=O)N5[C@H]3Nc3ccccc34)C[C@@H]12 (stereo partly drawn) [Compound I-1],IC50,NK1 [1],600 ± 300 nM
same,IC50,NK2 receptor [2],3400 ± 1300 nM
same,Ki,NK2 receptor [3],720 nM
same,"pA2, competitive inhibition of Substance P-induced contractility",NK1 [4],6.6±0.31
same,Ki,NK1 [5],950 to 2400 nM
same,Ki,"NK1 [6]; U-373 MG cells, 125I-Bolton Hunter Substance P, Ki calculated from IC50, read-out: Ki Human Astrocytoma Cells (Substance P antagonist potency)",240 nM
same,IC50,NK1 [6],300 nM
same,Potency relative to ditryptophenaline,NK1 [6]; ratio of IC50 values in human astrocytoma cells,fortyfold
same,Ki,NK2 receptor [7],260 nM
same,IC50,NK3,15200 nM
"CN1C(=O)[C@@H]2C[C@@]3([C@@]45C[C@H]6C(=O)N(C)[C@@H](Cc7ccccc7)C(=O)N6[C@@H]4Nc4ccccc45)c4ccccc4N[C@H]3N2C(=O)[C@@H]1Cc1ccccc1 [ditryptophenaline, reference compound]",LD50,[8],> 200 mg/kg
same,IC50,NK1 [6],12000 nM
